How the values were obtained:
[1] = test system: Acremonium chrysogenum high-cephalosporin-yielding (HY) RNCM F-4081D; experiment: Fungal growth inhibition (drop-dilution, CD agar), HY strain; assay type: cell-based; details: for inhibition at 5000 µM: Hapsidospora chrysogena, 336 h, read-out: Growth inhibition
Text: (§1) Two strains of Acremonium chrysogenum were used in this study: the wild-type (Brotzu) isolate ATCC 11550 (WT) and high-cephalosporin-yielding RNCM F-4081D (HY), derived from the WT [37]. The cultivation conditions were the same as previously described. The filamentous fungi were cultivated on agarized Czapek-Dox (CD) medium (30 g/L sucrose, 2 g/L NaNO3, 1 g/L K2HPO4, 0.5 g/L MgSO4×7 H2O, 0.5 g/L KCl, 0.01 g/L FeSO4×7 H2O, 20 g/L agar, pH 7.0–7.4). To determine the toxic effect of AO-Agm, APA, DFMA and DFMO on the growth of fungal cells the drop-dilution method was used with some modifications as described earlier. Cells were collected from agar slants and diluted with 0.9% NaCl solution up to OD600 = 0.5 (basic concentration), followed by serial tenfold dilutions with the same solution. […] The inoculated Petri dishes were incubated for 21 days at 26 °C. The inhibitory effects of the compounds were measured every three days after inoculation and evaluated by measuring the ratio of colony growth on agarized CD medium supplemented with AO-Agm, APA, DFMA, or DFMO to the growth in the control (agarized CD medium without any additions). The formula: growth inhibition % = [(Dc − Dt)/Dc] × 100, where Dc indicates the colony diameter in control set, and Dt indicates the colony diameter in the treatment set that was used to determine the percent of fungal growth inhibition. The data recorded were measured in triplicate and repeated at least twice.

[2] = biological target: T1, E. coli ADC (Escherichia coli, UniProt P21170); experiment: E. coli ADC activity assay (HPLC of agmatine); assay type: biochemical; details: 0.1 mM PLP; 15 min preincubation; 0.15 mM L-Arg
T1 construct: The kinetic parameters determined for the partially purified biosynthetic ADC from E. coli; endogenous in cells; host or cells: E. coli DH5α (39-53% ammonium sulphate fraction of the lysate, desalted)
T1 sequence (P21170 1-658): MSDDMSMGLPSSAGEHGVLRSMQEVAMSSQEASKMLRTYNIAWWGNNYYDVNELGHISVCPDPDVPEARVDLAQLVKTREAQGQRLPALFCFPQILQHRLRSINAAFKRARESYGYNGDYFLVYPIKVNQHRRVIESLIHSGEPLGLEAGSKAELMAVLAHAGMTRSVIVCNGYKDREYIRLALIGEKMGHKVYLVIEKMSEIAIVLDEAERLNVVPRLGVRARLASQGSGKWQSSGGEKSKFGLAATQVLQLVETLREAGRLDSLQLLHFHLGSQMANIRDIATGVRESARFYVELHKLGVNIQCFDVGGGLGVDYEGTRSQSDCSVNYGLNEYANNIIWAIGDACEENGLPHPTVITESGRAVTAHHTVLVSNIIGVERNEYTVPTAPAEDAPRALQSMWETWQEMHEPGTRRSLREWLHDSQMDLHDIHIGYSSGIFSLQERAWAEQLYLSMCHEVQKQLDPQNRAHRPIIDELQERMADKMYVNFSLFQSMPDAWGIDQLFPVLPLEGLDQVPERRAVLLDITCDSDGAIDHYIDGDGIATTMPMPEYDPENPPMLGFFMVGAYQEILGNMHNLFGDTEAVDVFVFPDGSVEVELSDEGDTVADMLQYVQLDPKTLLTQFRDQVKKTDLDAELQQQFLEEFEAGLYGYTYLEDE
Experimental: (§2) The purification was performed using a modified procedure of earlier publication. E. coli strain DH5α was grown in Luria-Bertani broth at +37 °C with shaking (200 rpm) overnight. The cells were collected by centrifugation and the pellet was homogenized with Potter-Elvehjem in 10 volumes (w/v) of ice-cold 50 mM Tris-HCl pH 7.4, 1 mM DTT. The cell debris was removed by centrifugation at 12,000 g for 30 min at +4 °C. Solid (NH4)2SO4 was added to the supernatant, and the pellet precipitating between 39% and 53% saturation was separated. The precipitate was resuspended in ice-cold buffer containing 50 mM Tris-HCl pH 7.4 and 1 mM DTT and desalted by passage through Sephadex G-25 column (NAP-10 column, GE Healthcare). The protein concentration was measured with Bio-Rad protein reagent, and the partially purified enzyme preparation was mixed with 20% glycerol and aliquoted for storage at −80 °C.
[…] The ODC reaction mixture contained 50 mM Tris-HCl pH 7.8, 1 mM EDTA, 2.4 mM DTT, 0.1 mM PLP and 20 μg of partially purified enzyme preparation. The mixtures were either preincubated or not preincubated for 15 min at +40 °C in the presence of the inhibitor, after which the reaction was started by the addition of 18 μL of 10× substrate (L-Arg for ADC and L-Orn for ODC). After incubation for 30 min (ADC) or 20 min (ODC) at +40 °C, 20 μL of 50% sulphosalicylic acid containing 50 μM diaminoheptane (internal standard) was added and the samples were analyzed for the content of agmatine (ADC) and Put (ODC) with HPLC as described previously. The kinetic parameters and IC50 values were determined with the aid of GraphPad Prism version 5.03 using nonlinear regression analysis.

[3] = test system: Acremonium chrysogenum wild-type (WT) ATCC 11550; experiment: Fungal growth inhibition (drop-dilution, CD agar), WT strain; assay type: cell-based; details: for inhibition at 5000 µM: Hapsidospora chrysogena, ATCC11550, 336 h, 14 days after inoculation on CD medium
Text: as §1

[4] = test system: A. chrysogenum HY strain; experiment: Polyamine content in the fungi, HY strain; assay type: cell-based, Acremonium chrysogenum; details: 24 h
Experimental: (§3) WT and HY A. chrysogenum strains were preliminarily grown in tubes on CD medium slants for 7 days at 25 °C and used for the inoculation of 30 mL of a liquid CD medium (seed medium). The strains were cultivated on CD medium for 48 h at 26 °C and inoculated into ten volumes of CD medium. The fermentation was carried out for 120 h at 26 °C in 250-mL Erlenmeyer flasks on a CERTOMAT BS-1 shaker (Sartorius, Germany) at 230 rpm, as described earlier. After 24 h of culture, 1 mL aliquots were removed, fungi were separated by centrifugation (15 min, 14,000 g) and washed with H2O (3 × 2 mL). The washed biomass was subjected to three cycles of freezing (−80 °C) and thawing at 20 °C in 5% perchloric acid. After the final thaw, samples were vortexed for 2 min and centrifuged for 10 min at 14,000 g. The supernatant was used for the determination of polyamine content.
(§4) The dry biomass was prepared from 2 mL aliquots of fermentation media after 24 h. The biomass was separated by centrifugation (15 min, 14,000 g), the precipitated fungi cells were washed in triplicate with 10 volumes of H2O, dried at 80 °C for 96 h to a constant weight and used for normalization of polyamine content in the fungi.
(§5) Polyamines were determined by HPLC from 50 µL of the 5% perchloric acid supernatant using a precolumn modification with Dans-Cl following mostly the published protocol. 1,7-Diaminoheptane was used as an internal standard and proline applied to quench the dansylation reaction. The solution of the dansylated polyamines in toluene (2 μL) was mixed with 50% aq. ethanol (13 µL) and applied on a reversed phase column (Cosmosil C18-MS-II, 250 × 4.6 mm, 5 µm). The column was eluted (1 mL/min) with the gradient: 0 min—0% B; 4 min—65% B; 17 min—65% B; 19 min—100% B, 23 min—100% B, 25 min—0% B; 30 min—0% B. System A—40% acetonitrile, 60% H2O. System B—80% acetonitrile, 20% tetrahydrofuran. Column temperature 40 °C, pressure 80–120 bar, fluorescent detection: λex 340 nm, λem 530 nm (detector RF-20A, Shimadzu Scientific Instrument, Columbia, MD, USA).

[5] = test system: A. chrysogenum WT strain; experiment: Polyamine content in the fungi, WT strain; assay type: cell-based, Acremonium chrysogenum; details: 24 h
Experimental: as §3, §4, §5

[6] = biological target: E. coli ODC (Escherichia coli, UniProt P21169); experiment: E. coli ODC activity assay (HPLC of Put); assay type: biochemical
Experimental: as §2
The ADC reaction mixture contained 50 mM Tris-HCl pH 7.8, 4 mM MgCl2, 1 mM DTT, 1.0 or 0.1 mM PLP and 20 μg of partially purified enzyme preparation in a total volume of 162 μL. The ODC reaction mixture contained 50 mM Tris-HCl pH 7.8, 1 mM EDTA, 2.4 mM DTT, 0.1 mM PLP and 20 μg of partially purified enzyme preparation. […] After incubation for 30 min (ADC) or 20 min (ODC) at +40 °C, 20 μL of 50% sulphosalicylic acid containing 50 μM diaminoheptane (internal standard) was added and the samples were analyzed for the content of agmatine (ADC) and Put (ODC) with HPLC as described previously. The kinetic parameters and IC50 values were determined with the aid of GraphPad Prism version 5.03 using nonlinear regression analysis.

[7] = biological target: T1, E. coli ADC; parameters: method as in PMID 4571773; details: pH 8.4; cited from earlier work
[8] = test system: DU145 prostate cancer cells; experiment: Growth of DU145 cells; assay type: cell-based; details: SC (1 mM) alone; 3 days
Experimental: (§6) DU145 prostate cancer cells were cultured in high-glucose Dulbecco’s Modified Eagle’s Medium supplemented with 10% heat-inactivated fetal bovine serum, 2 mM L-glutamine and 50 μg/mL gentamycin (all from Sigma-Aldrich). The cells were plated on 6-well plates and allowed to attach overnight. […] The cells were harvested, and the pellet was mixed with 150 μL of 5% sulphosalicylic acid containing 5 μM diaminoheptane (internal standard). Polyamine analysis was carried out as described previously.

[9] = test system: DU145 prostate cancer cells; experiment: Intracellular polyamine pools of DU145 cells; assay type: cell-based; details: SC (1 mM) alone; 3 days
Experimental: as §6

[10] = substrate: N=C(N)NCCC[C@H](N)C(=O)O; experiment: E. coli ADC activity assay (HPLC of agmatine); assay type: biochemical; details: other: partially purified ADC, pH 7.8
Experimental: as §2
[…] After incubation for 30 min (ADC) or 20 min (ODC) at +40 °C, 20 μL of 50% sulphosalicylic acid containing 50 μM diaminoheptane (internal standard) was added and the samples were analyzed for the content of agmatine (ADC) and Put (ODC) with HPLC as described previously. The kinetic parameters and IC50 values were determined with the aid of GraphPad Prism version 5.03 using nonlinear regression analysis.

E. coli ODC, sequence (P21169 whole entry): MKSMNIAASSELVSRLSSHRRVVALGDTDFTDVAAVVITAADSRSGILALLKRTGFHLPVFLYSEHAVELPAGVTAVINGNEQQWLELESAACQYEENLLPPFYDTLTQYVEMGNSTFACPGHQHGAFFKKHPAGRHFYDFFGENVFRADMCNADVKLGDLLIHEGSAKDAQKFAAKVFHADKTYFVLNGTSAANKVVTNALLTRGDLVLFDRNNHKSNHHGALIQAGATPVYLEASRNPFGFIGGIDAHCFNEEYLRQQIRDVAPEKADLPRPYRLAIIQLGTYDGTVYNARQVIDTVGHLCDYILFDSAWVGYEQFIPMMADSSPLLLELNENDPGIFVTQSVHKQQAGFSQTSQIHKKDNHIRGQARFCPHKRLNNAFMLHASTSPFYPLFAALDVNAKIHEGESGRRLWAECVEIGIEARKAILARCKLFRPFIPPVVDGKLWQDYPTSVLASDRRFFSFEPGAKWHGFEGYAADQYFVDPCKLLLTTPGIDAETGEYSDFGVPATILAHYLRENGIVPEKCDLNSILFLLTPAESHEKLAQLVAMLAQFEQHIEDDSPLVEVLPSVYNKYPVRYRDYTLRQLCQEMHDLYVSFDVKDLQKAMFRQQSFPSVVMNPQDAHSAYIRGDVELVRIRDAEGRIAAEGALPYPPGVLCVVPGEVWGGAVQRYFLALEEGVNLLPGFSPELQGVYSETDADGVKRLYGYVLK

Molecule: N=C(N)NCCCC(N)(C(=O)O)C(F)F (racemic) [DFMA, D,L-α-(difluoromethyl)arginine]
- inhibition at 5000 µM [1]: 13%
- IC50 [2]: 10 ± 1 µM
- inhibition at 5000 µM ([3]; 5 mM inhibitor): 7%

Molecule: NCCC[C@](N)(C(=O)O)C(F)F [DFMO, α-(Difluoromethyl)ornithine]
- Put ([4]; 5 mM DFMO + 0.5 mM Spd): <10 pmol/mg Dry Weight
- Spd ([4]; 5 mM DFMO + 0.5 mM Spd): 46,630 ± 6700 pmol/mg Dry Weight
- Spm ([4]; 5 mM DFMO + 0.5 mM Spd): 340 ± 56 pmol/mg Dry Weight
- Put ([4]; 5 mM DFMO): <10 pmol/mg Dry Weight
- Spd ([4]; 5 mM DFMO): 410 ± 60 pmol/mg Dry Weight
- Spm ([4]; 5 mM DFMO): 424 ± 39 pmol/mg Dry Weight
- Growth inhibition compared with 5 mM ([1]; HY strain, 1 mM inhibitor): much less effective
- inhibition at 5000 µM [1]: 41%
- Put ([5]; 5 mM DFMO + 0.5 mM Spd): <10 pmol/mg Dry Weight
- Spd ([5]; 5 mM DFMO + 0.5 mM Spd): 11,530 ± 3690 pmol/mg Dry Weight
- Spm ([5]; 5 mM DFMO + 0.5 mM Spd): 90 ± 30 pmol/mg Dry Weight
- Put ([5]; 5 mM DFMO): <10 pmol/mg Dry Weight
- Spd ([5]; 5 mM DFMO): 140 ± 10 pmol/mg Dry Weight
- Spm ([5]; 5 mM DFMO): 170 ± 20 pmol/mg Dry Weight
- Growth inhibition compared with 1 mM APA ([3]; 1 mM inhibitor): significantly less effective
- Growth of WT strain ([3]; 5 mM inhibitor): completely inhibited
- Effect of 0.5 mM Spd on the growth arrest caused by the inhibitor ([3]; 5 mM inhibitor + 0.5 mM Spd): reversed the growth arrest
- inhibition at 5000 µM ([3]; 5 mM inhibitor): 100%
- Potency to inhibit E. coli ODC ([6]; 0.1 mM PLP, 15 min preincubation, 7 mM L-Orn): very low potency

Molecule: N=C(N)NCCC[C@H](N)C(=O)O [L-Arg, L-arginine]
- Km [7]: 30 µM

Molecule: NCCC[C@H](N)C(=O)O [L-Orn, L-ornithine]
- Vmax ([6]; partially purified ODC): 709 ± 7 nmol/h/mg protein

Molecule: NNC(N)=O [SC, semicarbazide, reference compound]
- Growth [8]: 1.00 ± 0.04 Fold
- Put [9]: 1258 ± 157 pmol/mg Protein
- Spd [9]: 6483 ± 282 pmol/mg Protein
- Spm [9]: 3582 ± 146 pmol/mg Protein

Molecule: NCCCCNCCCN [Spd, spermidine]
- Put ([4]; 0.5 mM Spd): <10 pmol/mg Dry Weight
- Spd ([4]; 0.5 mM Spd): 39,180 ± 4840 pmol/mg Dry Weight
- Spm ([4]; 0.5 mM Spd): 330 ± 10 pmol/mg Dry Weight
- Put ([5]; 0.5 mM Spd): <10 pmol/mg Dry Weight
- Spd ([5]; 0.5 mM Spd): 12,200 ± 2180 pmol/mg Dry Weight
- Spm ([5]; 0.5 mM Spd): 70 ± 10 pmol/mg Dry Weight

B1: E. coli ADC (Escherichia coli K-12) (protein)
chain: T1 sequence (P21170 1-658)
notes: The kinetic parameters determined for the partially purified biosynthetic ADC from E. coli; endogenous in cells; host or cells: E. coli DH5α (39-53% ammonium sulphate fraction of the lysate, desalted)
- Km [10]: 158 ± 5 µM
- Vmax [10]: 546 ± 5 nmol/h/mg protein

Source: PMC7175277, “Hydroxylamine Analogue of Agmatine: Magic Bullet for Arginine Decarboxylase” (Biomolecules, 2020)
